Drawing on paper PMC12652692, “Synthesis and In Vitro Anticancer Evaluation of Novel Phosphonium Derivatives of Chrysin” (International Journal of Molecular Sciences, 2025), this text covers GI50 for two molecules.

Assay in all cases: NCI60 five-dose screen
What all share (format): cell-based

One experiment has as its system NCI-H226. As to conditions: Homo sapiens; NCI-H226, Non-small-Cell Lung Cancer. Put shortly:
(§1)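 Growth was quantified by sulforhodamine B protein staining after cells had been treated for 48 h with five serially diluted compound concentrations. GI50 values were derived from percentage growth relative to time-zero and untreated controls.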

Another experiment relates to OVCAR-8. The conditions noted are these: Homo sapiens; OVCAR-8, Ovarian Cancer. An outline of the steps: as §1
Another experiment concerns CAKI-1. The conditions noted are these: Homo sapiens; CAKI-1, Renal Cancer. Put shortly:
as §1

The test system of the next experiment is RPMI-8226. The conditions noted are these: Homo sapiens; RPMI-8226, Leukemia. Put shortly:
as §1

The test system of another experiment is OVCAR-5. The conditions noted are these: Homo sapiens; OVCAR-5, Ovarian Cancer. Put shortly: as §1
A further experiment has as its system MDA-MB231ATCC. The conditions noted are these: Homo sapiens, MDA-MB-231, Breast Cancer. An outline of the steps:
as §1

The next experiment relates to SNB-75. The conditions noted are these: Homo sapiens; SNB-75, CNS Cancer. An outline of the steps:
as §1

Another experiment concerns HL-60(TB). The conditions noted are these: Homo sapiens, Leukemia. Put shortly: as §1
In another experiment the test system is SF-268. As to conditions: Homo sapiens; SF-268, CNS Cancer. An outline of the steps:
as §1

The next experiment deals with HS 578T. As to conditions: Homo sapiens, Breast Cancer. Put shortly:
as §1

For a further experiment, the system named is HCT-15. As to conditions: Homo sapiens; HCT-15, Colon Cancer. An outline of the steps:
as §1

For another experiment, the system named is LOX IMVI. The conditions noted are these: Homo sapiens, Melanoma. Put shortly:
as §1

A further experiment concerns SW-620. The conditions noted are these: Homo sapiens; SW-620, Colon Cancer. An outline of the steps:
as §1

Another experiment relates to M14. The conditions noted are these: Homo sapiens; M14, Melanoma. An outline of the steps:
as §1

The subject of a further experiment is TK-10. The conditions noted are these: Homo sapiens; TK-10, Renal Cancer. Put shortly: as §1
The next experiment has as its system UACC-62. The conditions noted are these: Homo sapiens; UACC-62, Melanoma. Put shortly: as §1
The subject of the next experiment is OVCAR-3. The conditions noted are these: Homo sapiens; OVCAR-3, Ovarian Cancer. Put shortly:
as §1

Another experiment concerns MALME-3M. As to conditions: Homo sapiens, Melanoma. Put shortly: as §1
For the next experiment, the system named is U251. The conditions noted are these: Homo sapiens, U-251; U251, CNS Cancer. An outline of the steps:
as §1

A further experiment deals with SF-539. The conditions noted are these: Homo sapiens; SF-539, CNS Cancer. An outline of the steps:
as §1

For the next experiment, the system named is MDA-MB-468. As to conditions: Homo sapiens; MDA-MB-468, Breast Cancer. An outline of the steps: as §1
The subject of a further experiment is MOLT-4. The conditions noted are these: Homo sapiens; MOLT-4, Leukemia. An outline of the steps:
as §1

On to `Cc1ccccc1[P+](CCCCOc1cc(O)c2c(=O)cc(-c3ccccc3)oc2c1)(c1ccccc1C)c1ccccc1C` [3g], for which the GI50 in the experiment with NCI-H226 worked out at 399 nM; in the experiment on OVCAR-8, 560 nM; in the experiment on CAKI-1, 309 nM; in the experiment with RPMI-8226 it was 135 nM; with OVCAR-5, 1720 nM; in the experiment on MDA-MB231ATCC it was 337 nM. Moreover, the GI50 is 274 nM with SNB-75; 180 nM in the experiment on HL-60(TB); 279 nM in the experiment on SF-268; 232 nM in the experiment on HS 578T; 1410 nM in the experiment on HCT-15; 170 nM in the experiment with LOX IMVI. Moreover, the GI50 in the experiment with SW-620 came to 274 nM; in the experiment on M14 it was 335 nM; with TK-10 it was 414 nM; with UACC-62 it was 319 nM; with OVCAR-3 it was 216 nM; with MALME-3M, 353 nM. For the same molecule, the GI50 is 225 nM in the experiment with U251, 187 nM with SF-539, 148 nM in the experiment on MDA-MB-468 and 235 nM with MOLT-4.

On to `O=c1cc(-c2ccccc2)oc2cc(OCCCC[P+](c3ccccc3)(c3ccccc3)c3ccccn3)cc(O)c12` [3h], for which the GI50 in the experiment with NCI-H226 turned out to be 1560 nM; in the experiment with OVCAR-8, 494 nM; with CAKI-1, 1540 nM; in the experiment on RPMI-8226, 248 nM; in the experiment with OVCAR-5 it was 1440 nM; in the experiment on MDA-MB231ATCC, 906 nM. Besides, the GI50 was 572 nM in the experiment with SNB-75; 130 nM with HL-60(TB); 760 nM with SF-268; 1130 nM with HS 578T; 1580 nM with HCT-15; 694 nM in the experiment with LOX IMVI. The GI50 in the experiment with SW-620 was determined as 901 nM; in the experiment with M14, 564 nM; in the experiment with TK-10 it was 1690 nM; in the experiment with UACC-62, 549 nM; with OVCAR-3 it was 418 nM; in the experiment with MALME-3M it was 594 nM. The GI50 stood at 335 nM with U251, 1060 nM in the experiment on SF-539, 176 nM with MDA-MB-468 and 424 nM with MOLT-4.

The GI50 is the concentration at which growth is held to half of that of the control. A lower GI50 goes with more potent growth inhibition.
